Values of other authors in US20070225367A1, “Composition for beneficially influencing Alzheimer's disease and/or for Alzheimer's prophylaxis” (Clariant International Ltd, priority 2006, published 2007).

Legend:
β-amyloid aggregation = β-amyloid aggregation (Homo sapiens, UniProt P05067); settings: in vitro
β-amyloid levels = settings: oral administration, APP transgenic mice

Chain of β-amyloid aggregation (P05067 672-713 limits assumed): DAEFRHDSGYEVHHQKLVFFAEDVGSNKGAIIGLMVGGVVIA

Compound: [Cu] [copper]
- effect on β-amyloid aggregation (β-amyloid aggregation): inhibitory effect
- β-amyloid levels (β-amyloid levels): reduced
